The results in this text go back to patent US8871753B2, “Macrocyclic compounds and their use as kinase inhibitors” (Incyte Corporation, priority 2008, dated 2014).

Type in all cases: biochemical
For assay [1], the target named is T1, human JAK1 (a.a. 837-1142) (Homo sapiens, UniProt P23458).
T1 construct: human JAK1 (a.a. 837-1142); His tag (N); made in house; host or cells: insect cells (baculovirus)
Put plainly: In vitro JAK kinase assay (HTRF, phosphorylation of a biotinylated peptide), JAK1. The following applies: Table B1; read-out: JAK1 IC50. Put shortly:
(§1)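 Kinase activity was measured as phosphorylation of a biotinylated peptide, with ATP at 90 μM for JAK1, 30 μM for JAK2 and 3 μM for JAK3. Reactions ran 1 hr at room temperature, were stopped with EDTA plus SA-APC and Eu-Py20, and were read by HTRF after 40 minutes of antibody binding.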

The target of another assay is TYK2 (Homo sapiens, UniProt P29597). Put plainly: TYK2 kinase inhibition (Table A1). Conditions: Table B1.
Assay [2] addresses T2, human JAK3 (a.a. 781-1124) (Homo sapiens, UniProt P52333).
T2 construct: JAK3 (a.a. 781-1124); His tag (N); made in house; host or cells: insect cells (baculovirus)
Put plainly: In vitro JAK kinase assay (HTRF, phosphorylation of a biotinylated peptide), JAK3. The following applies: Table B1. The procedure, abridged: as §1

The target of assay [3] is T3, Recombinant Human Anaplastic Lymphoma Kinase (Homo sapiens, UniProt Q9UM73).
T3 construct: purchased Invitrogen, Carlsbad, Calif
Briefly: ALK HTRF kinase assay. The following applies: percentage inhibition of the example compound at a concentration of 500 nM or 1 mM (not specified which). The procedure, abridged:
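TR-FRET read-out (Eu anti-pTyr antibody + streptavidin-APC) of biotin-peptide phosphorylation by recombinant human enzyme; IC50 by sigmoidal fit with top/bottom baselines and Hill slope.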

The target in assay [4] is T4, human JAK2 (a.a. 828-1132) (Homo sapiens, UniProt O60674).
T4 construct: JAK2 (a.a. 828-1132); His tag (N); made in house; host or cells: insect cells (baculovirus)
Briefly: In vitro JAK kinase assay (HTRF, phosphorylation of a biotinylated peptide), JAK2. Conditions: Table B1. Put shortly:
as §1

Structures can show the parent of a compound that is named as a salt. Where only a bound is given, the exact number is not on record here.

T2 sequence (P52333 781-1124): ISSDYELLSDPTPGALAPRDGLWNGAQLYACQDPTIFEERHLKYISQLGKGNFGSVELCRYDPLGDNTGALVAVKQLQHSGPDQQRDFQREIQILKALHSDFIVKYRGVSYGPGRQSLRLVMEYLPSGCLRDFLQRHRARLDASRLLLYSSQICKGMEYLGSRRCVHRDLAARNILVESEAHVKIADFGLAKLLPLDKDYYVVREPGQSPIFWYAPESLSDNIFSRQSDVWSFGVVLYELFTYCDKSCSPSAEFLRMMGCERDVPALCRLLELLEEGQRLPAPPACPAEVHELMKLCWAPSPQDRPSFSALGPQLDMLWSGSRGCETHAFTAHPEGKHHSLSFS
T1 sequence (P23458 849-1154): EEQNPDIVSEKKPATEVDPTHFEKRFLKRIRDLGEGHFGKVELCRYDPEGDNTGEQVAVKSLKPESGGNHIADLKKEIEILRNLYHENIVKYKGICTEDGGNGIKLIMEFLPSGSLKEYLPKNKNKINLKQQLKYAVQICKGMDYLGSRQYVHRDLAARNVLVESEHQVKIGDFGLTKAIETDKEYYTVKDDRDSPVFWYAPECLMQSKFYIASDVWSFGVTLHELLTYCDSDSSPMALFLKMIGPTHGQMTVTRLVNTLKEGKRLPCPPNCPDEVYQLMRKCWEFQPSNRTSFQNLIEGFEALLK
Chain of TYK2 (P29597 whole entry): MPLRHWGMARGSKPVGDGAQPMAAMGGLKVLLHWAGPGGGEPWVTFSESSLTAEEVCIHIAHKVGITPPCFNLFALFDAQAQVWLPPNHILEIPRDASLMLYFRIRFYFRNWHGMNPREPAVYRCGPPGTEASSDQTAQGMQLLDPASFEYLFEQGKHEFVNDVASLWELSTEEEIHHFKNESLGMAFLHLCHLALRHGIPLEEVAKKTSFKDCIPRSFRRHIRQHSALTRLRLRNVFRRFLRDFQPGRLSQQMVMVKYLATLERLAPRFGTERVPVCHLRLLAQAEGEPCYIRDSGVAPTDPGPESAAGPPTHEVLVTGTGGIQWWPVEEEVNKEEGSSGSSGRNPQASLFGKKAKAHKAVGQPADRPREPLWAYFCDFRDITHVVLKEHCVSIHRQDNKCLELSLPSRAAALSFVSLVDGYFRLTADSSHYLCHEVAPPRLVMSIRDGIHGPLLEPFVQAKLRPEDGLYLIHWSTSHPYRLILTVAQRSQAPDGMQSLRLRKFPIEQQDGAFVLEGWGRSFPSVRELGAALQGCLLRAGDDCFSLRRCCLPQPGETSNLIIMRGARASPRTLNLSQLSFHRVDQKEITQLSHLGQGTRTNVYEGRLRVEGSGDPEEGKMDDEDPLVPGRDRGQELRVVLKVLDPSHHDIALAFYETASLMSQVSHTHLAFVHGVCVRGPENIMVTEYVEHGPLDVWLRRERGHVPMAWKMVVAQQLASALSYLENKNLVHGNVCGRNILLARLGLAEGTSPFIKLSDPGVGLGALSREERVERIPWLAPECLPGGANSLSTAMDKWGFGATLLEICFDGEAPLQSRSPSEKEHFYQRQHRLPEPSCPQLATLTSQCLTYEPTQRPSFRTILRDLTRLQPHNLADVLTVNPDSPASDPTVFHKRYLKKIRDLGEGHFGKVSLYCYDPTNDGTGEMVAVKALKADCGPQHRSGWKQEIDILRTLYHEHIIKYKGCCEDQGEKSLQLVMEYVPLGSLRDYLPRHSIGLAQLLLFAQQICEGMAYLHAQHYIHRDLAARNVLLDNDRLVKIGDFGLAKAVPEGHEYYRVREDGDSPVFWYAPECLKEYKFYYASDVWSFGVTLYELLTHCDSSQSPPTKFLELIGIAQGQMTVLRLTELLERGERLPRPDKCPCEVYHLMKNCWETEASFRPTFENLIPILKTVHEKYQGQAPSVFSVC
T3 sequence (Q9UM73 19-1620): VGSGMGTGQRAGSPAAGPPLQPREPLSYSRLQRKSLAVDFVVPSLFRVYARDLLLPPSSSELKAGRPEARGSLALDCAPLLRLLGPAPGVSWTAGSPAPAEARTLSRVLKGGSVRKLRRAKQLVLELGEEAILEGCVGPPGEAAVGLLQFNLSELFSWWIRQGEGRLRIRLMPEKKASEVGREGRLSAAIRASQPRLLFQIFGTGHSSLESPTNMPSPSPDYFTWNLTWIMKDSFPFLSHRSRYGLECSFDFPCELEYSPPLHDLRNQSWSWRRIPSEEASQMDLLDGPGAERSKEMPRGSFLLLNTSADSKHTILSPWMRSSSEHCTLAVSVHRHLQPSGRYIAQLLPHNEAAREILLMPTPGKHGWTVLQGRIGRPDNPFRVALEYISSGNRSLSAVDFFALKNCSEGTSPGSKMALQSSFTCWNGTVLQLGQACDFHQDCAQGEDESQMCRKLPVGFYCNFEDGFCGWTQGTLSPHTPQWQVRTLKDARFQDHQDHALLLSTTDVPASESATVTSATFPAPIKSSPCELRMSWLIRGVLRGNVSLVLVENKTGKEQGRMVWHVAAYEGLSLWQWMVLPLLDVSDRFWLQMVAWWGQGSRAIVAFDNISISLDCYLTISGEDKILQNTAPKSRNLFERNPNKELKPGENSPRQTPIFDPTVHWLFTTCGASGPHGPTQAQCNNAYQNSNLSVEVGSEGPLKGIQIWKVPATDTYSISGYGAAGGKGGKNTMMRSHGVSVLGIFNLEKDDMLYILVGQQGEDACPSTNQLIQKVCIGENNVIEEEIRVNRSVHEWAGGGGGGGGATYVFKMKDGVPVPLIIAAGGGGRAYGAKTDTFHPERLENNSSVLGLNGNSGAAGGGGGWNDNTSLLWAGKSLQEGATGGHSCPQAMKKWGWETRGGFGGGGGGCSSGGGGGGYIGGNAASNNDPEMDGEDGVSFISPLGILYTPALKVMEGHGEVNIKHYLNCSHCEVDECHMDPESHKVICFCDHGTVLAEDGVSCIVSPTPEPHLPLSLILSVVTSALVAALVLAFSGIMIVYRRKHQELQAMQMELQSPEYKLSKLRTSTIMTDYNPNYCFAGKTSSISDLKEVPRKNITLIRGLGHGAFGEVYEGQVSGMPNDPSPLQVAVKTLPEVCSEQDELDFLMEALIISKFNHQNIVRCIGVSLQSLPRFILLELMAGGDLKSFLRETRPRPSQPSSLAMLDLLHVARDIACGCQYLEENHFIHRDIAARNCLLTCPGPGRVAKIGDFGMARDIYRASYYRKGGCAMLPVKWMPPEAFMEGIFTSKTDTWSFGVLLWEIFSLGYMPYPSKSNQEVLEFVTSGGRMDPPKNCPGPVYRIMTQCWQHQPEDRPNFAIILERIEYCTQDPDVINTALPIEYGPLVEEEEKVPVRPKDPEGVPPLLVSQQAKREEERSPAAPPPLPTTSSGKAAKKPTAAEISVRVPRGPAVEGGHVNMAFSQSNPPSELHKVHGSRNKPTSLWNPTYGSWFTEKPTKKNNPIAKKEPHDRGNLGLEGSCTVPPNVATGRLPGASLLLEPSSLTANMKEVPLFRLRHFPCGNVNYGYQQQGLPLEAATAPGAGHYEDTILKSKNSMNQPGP
T4 sequence (O60674 828-1132): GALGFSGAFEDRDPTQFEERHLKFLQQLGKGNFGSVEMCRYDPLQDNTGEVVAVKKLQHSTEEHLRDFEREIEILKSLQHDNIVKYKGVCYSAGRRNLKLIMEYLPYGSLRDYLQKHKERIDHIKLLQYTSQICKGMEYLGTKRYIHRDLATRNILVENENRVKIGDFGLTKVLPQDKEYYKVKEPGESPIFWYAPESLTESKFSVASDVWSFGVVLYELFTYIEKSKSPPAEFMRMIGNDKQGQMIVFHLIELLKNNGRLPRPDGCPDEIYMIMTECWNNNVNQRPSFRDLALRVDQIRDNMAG

As for `O=C(NO)Nc1ccc2cc1CCc1cccc(c1)Nc1ncc(Cl)c(n1)N2` [Example B324, N-[6-Chloro-2,4,8,22-tetraazatetracyclo[14.3.1.1(3,7).1(9,13)]docosa-1(20),3(22),4,6,9(21),10,12,16,18-nonaen-12-yl]-N′-hydroxyurea trifluoroacetate], the IC50 in assay [1] stood at 20 nM; against TYK2, 2.8 nM; in assay [2], 7.5 nM; in assay [4], 56 nM. Moreover, the “ALK % of inhibition at a concentration of 500 nM or 1 mM” value (shortened to “ALK % of inhibition”) in assay [3] turned out to be 16%.
On the same counts, the results for `CCS(=O)(=O)NCCNC(=O)Nc1ccc2cc1CCc1cccc(c1)Nc1ncc(Cl)c(n1)N2` [Example B325, N-{2-[({[6-Chloro-2,4,8,22-tetraazatetracyclo[14.3.1.1(3,7).1(9,13)]docosa-1(20),3(22),4,6,9(21),10,12,16,18-nonaen-12-yl]amino}carbonyl)amino]ethyl}ethanesulfonamide trifluoroacetate] are 2 nM, 5.5 nM, 6.4 nM, 1.6 nM and 19%.
On the same counts, the results for `CCCS(=O)(=O)NCCNC(=O)Nc1ccc2cc1CCc1cccc(c1)Nc1ncc(Cl)c(n1)N2` [Example B326, N-{2-[({[6-Chloro-2,4,8,22-tetraazatetracyclo[14.3.1.1(3,7).1(9,13)]docosa-1(20),3(22),4,6,9(21),10,12,16,18-nonaen-12-yl]amino}carbonyl)amino]ethyl}propane-1-sulfonamide trifluoroacetate] are 3 nM, 6.9 nM, 7.8 nM, 3.4 nM and 19%.
On the same counts, the results for `O=C(NCCNS(=O)(=O)C1CC1)Nc1ccc2cc1CCc1cccc(c1)Nc1ncc(Cl)c(n1)N2` [Example B327, N-{2-[({[6-Chloro-2,4,8,22-tetraazatetracyclo[14.3.1.1(3,7).1(9,13)]docosa-1(20),3(22),4,6,9(21),10,12,16,18-nonaen-12-yl]amino}carbonyl)amino]ethyl}cyclopropanesulfonamide trifluoroacetate] are 2 nM, 5 nM, 4.2 nM, 1.8 nM and 19%.
Take `CN(C)S(=O)(=O)NCCNC(=O)Nc1ccc2cc1CCc1cccc(c1)Nc1ncc(Cl)c(n1)N2` [Example B328, N-[6-chloro-2,4,8,22-tetraazatetracyclo[14.3.1.1(3,7).1(9,13)]docosa-1(20),3(22),4,6,9(21),10,12,16,18-nonaen-12-yl]-N′-(2-{[(dimethylamino)sulfonyl]amino}ethyl)urea trifluoroacetate]: the IC50 worked out at 18 nM in assay [1], 7.1 nM against TYK2, 24 nM in assay [2] and 25 nM in assay [4]. Further, the “ALK % of inhibition” value in assay [3] stood at 16%.
On the same counts, the results for `O=C(NCCNS(=O)(=O)c1ccccc1)Nc1ccc2cc1CCc1cccc(c1)Nc1ncc(Cl)c(n1)N2` [Example B329, N-{2-[({[6-Chloro-2,4,8,22-tetraazatetracyclo[14.3.1.1(3,7).1(9,13)]docosa-1(20),3(22),4,6,9(21),10,12,16,18-nonaen-12-yl]amino}carbonyl)amino]ethyl}benzenesulfonamide trifluoroacetate] are 3 nM, 5.8 nM, 6.5 nM, 3.2 nM and 20%.
On the same counts, the results for `O=C(NCCNS(=O)(=O)c1ccc(Cl)s1)Nc1ccc2cc1CCc1cccc(c1)Nc1ncc(Cl)c(n1)N2` [Example B330, 5-Chloro-N-{2-[({[6-chloro-2,4,8,22-tetraazatetracyclo[14.3.1.1(3,7).1(9,13)]docosa-1(20),3(22),4,6,9(21),10,12,16,18-nonaen-12-yl]amino}carbonyl)amino]ethyl}thiophene-2-sulfonamide trifluoroacetate] are 4 nM, 16 nM, 7.1 nM, 6.1 nM and 21%.
For `O=C(NCCNS(=O)(=O)c1ccc(Cl)nc1)Nc1ccc2cc1CCc1cccc(c1)Nc1ncc(Cl)c(n1)N2` [Example B331, 6-Chloro-N-{2-[({[6-chloro-2,4,8,22-tetraazatetracyclo[14.3.1.1(3,7).1(9,13)]docosa-1(20),3(22),4,6,9(21),10,12,16,18-nonaen-12-yl]amino}carbonyl)amino]ethyl}pyridine-3-sulfonamide trifluoroacetate], in that order: 2 nM, 16 nM, 2.7 nM, 3.6 nM and 27%.
Consider `Cn1ccc(S(=O)(=O)NCCNC(=O)Nc2ccc3cc2CCc2cccc(c2)Nc2ncc(Cl)c(n2)N3)n1` [Example B332, N-{2-[({[6-chloro-2,4,8,22-tetraazatetracyclo[14.3.1.1(3,7).1(9,13)]docosa-1(20),3(22),4,6,9(21),10,12,16,18-nonaen-12-yl]amino}carbonyl)amino]ethyl}-1-methyl-1H-pyrazole-3-sulfonamide trifluoroacetate], for which the IC50 in assay [1] came to 3 nM; at TYK2, 8.2 nM; in assay [2], 26 nM; in assay [4] it was 3.4 nM. Further, in assay [3], the “ALK % of inhibition” value is 23%.
On the same counts, the results for `Clc1cnc2nc1Nc1ccc(Nc3nc4cccnc4o3)c(c1)CCc1cccc(c1)N2` [Example B333, 6-Chloro-N-[1,3]oxazolo[5,4-b]pyridin-2-yl-2,4,8,22-tetraazatetracyclo[14.3.1.1(3,7).1(9,13)]docosa-1(20),3(22),4,6,9(21),10,12,16,18-nonaen-12-amine tris(trifluoroacetate)] are 6.8 nM, 1.2 nM, 1 nM, 15 nM and 55%.
For `CNCc1ccc2cc1CCc1cncc(c1)Nc1ncc(Cl)c(n1)N2` [Example B334, 1-[6-Chloro-2,4,8,18,22-pentaazatetracyclo[14.3.1.1(3,7).1(9,13)]docosa-1(20),3(22),4,6,9(21),10,12,16,18-nonaen-12-yl]-N-methylmethanamine trihydrochloride], in that order: 44 nM, > 200 nM, > 200 nM, 199 nM and 72%.
For `Cc1cc(C(=O)N2CCC(C(=O)N(C)Cc3ccc4cc3CCc3cncc(c3)Nc3ncc(Cl)c(n3)N4)CC2)no1` [Example B335, N-{[6-Chloro-2,4,8,18,22-pentaazatetracyclo[14.3.1.1(3,7).1(9,13)]docosa-1(20),3(22),4,6,9(21),10,12,16,18-nonaen-12-yl]methyl}-N-methyl-1-[(5-methylisoxazol-3-yl)carbonyl]piperidine-4-carboxamide bis(trifluoroacetate)], in that order: 45 nM, > 200 nM, > 200 nM, 77 nM and 18%.
As to `CN(Cc1ccc2cc1CCc1cncc(c1)Nc1ncc(Cl)c(n1)N2)C(=O)C1CCN(C(=O)c2ccno2)CC1` [Example B336, N-{[6-Chloro-2,4,8,18,22-pentaazatetracyclo[14.3.1.1(3,7).1(9,13)]docosa-1(20),3(22),4,6,9(21),10,12,16,18-nonaen-12-yl]methyl}-1-(isoxazol-5-ylcarbonyl)-N-methylpiperidine-4-carboxamide bis(trifluoroacetate)], the IC50 was 52 nM in assay [1], > 200 nM against TYK2, > 200 nM in assay [2] and 140 nM in assay [4]. In addition, the “ALK % of inhibition” value in assay [3] was found to be 11%.
Take `CN(Cc1ccc2cc1CCc1cncc(c1)Nc1ncc(Cl)c(n1)N2)C(=O)C1CCN(C(=O)Nc2ccccc2)CC1` [Example B337, N(4)-{[6-chloro-2,4,8,18,22-pentaazatetracyclo[14.3.1.1(3,7).1(9,13)]docosa-1(20),3(22),4,6,9(21),10,12,16,18-nonaen-12-yl]methyl}-N(4)-methyl-N(1)-phenylpiperidine-1,4-dicarboxamide bis(trifluoroacetate)]: the IC50 in assay [1] was 41 nM; against TYK2 it was > 200 nM; in assay [2], > 200 nM; in assay [4] it was 171 nM. Besides, in assay [3], the “ALK % of inhibition” value is reported as 21%.
